Assay results published in patent US20100015174A1, “METHOD TO CONTROL DENGUE VIRUSES IN HUMANS BY PICOLINIC ACID AND DERIVATIVES THEREOF” (priority 2008, published 2010).
Converted amounts (≈) assume the structure as drawn.

How the values were obtained:
Ava.5 cell line = assay: Cytotoxicity by OD in HCV replicon cells; type: cell-based
Description: (§1) Here we determine the effects of Picolinic acid and Fusaric Acid on HCV replicon cell lines. The HCV replicons (qRTCPCR/iCycler) were contained in the Ava.5 cell line tested. Normalization by OD and serial dilutions were done in the untreated cell line. The experimental design was as follows: cells were grown in 12 well cell culture plates; the compounds interaction was done for 24 hours; at extraction, cell confluence was 75%; and RNA was extracted using Qiagen Rneasy extraction kit.

HCV replicon = HCV replicon (qRTCPCR/iCycler) in Ava.5 cell line; type: cell-based, Human Hepatitis C Virus; settings: Hepatitis C virus, Ava5, 24 h, read-out: inhibition of HCV replicon
Description: as §1

CMV AD 169 strain = assay: CMV replication in HEL-299 cells (virus titration); type: cell-based, Cytomegalovirus; settings: Human betaherpesvirus 5, 72 h, 3 days, read-out: EC50 for inhibition of CMV replication
Description: CMV AD 169 strain (ATCC) was used in the experiments. A CMV susceptible cell line, human fibroblast cells HEL-299 (ATCC), was used in the plaque reduction assays.
90% confluent HEL-299 cells were washed and then Infected with CMV AD169 at 0.5 moi for 2 h at 37° C. Following removal of viral inoculums, the Infected cells were washed and exposed to different concentrations of PA (final concentrations: 0, 10, 100, 250, 500, and 1000 ug/mL) or FA (final concentrations: 0, 1, 10, 30, 60, and 100 ug/mL for 3 days. The culture medium was collected for titration of released virions and the cells were harvested for titration of intracellular virions.
90% confluent HEL-299 cells in 24 well plates were Infected with 200 uL of CMV dilutions at 37° C. for 2 h. Following removal of virus inoculums, the infected cells were washed with PBS and overlaid with 0.5% methylcellulose in culture medium. We then treated CMV Infected cells for 3 days at 37° C. with different concentrations of PA and FA. The culture medium was collected for titration of released virus and the cells were harvested for titration of intracellular virus.

J2 retrovirus = settings: GG2EE transformed macrophages; cited from earlier work
[1] = test system: certain lymphomas, and viral diseases such as Herpes simplex labialis, herpes zoster and papilloma viruses; assay: Systemic picolinic acid capsules in humans; type: in vivo; settings: 00 gelatin capsules at 500 mg per capsule
Source text: A systemic preparation of picolinic acid, its derivatives or analogs, containing approximately 1% to 100% active ingredient, may be administered orally, intravenously, intramuscularly or by any acceptable route for the treatment of viral systemic infections such as Dengue. […] Likewise, an injectable form may be prepared.

With `CCCCc1ccc(C(=O)O)nc1` [FA, fusaric acid] the “overt cytotoxicity by OD” value (Ava.5 cell line; 100 ug/mL) was “no overt cytotoxicity”, the inhibition at 100 µg/mL (HCV replicon) was ~60% and the EC50 (CMV AD 169 strain) was ~60 µg/mL (≈ 335 µM).
In the case of `O=C(O)c1ccccn1` [PA, picolinic acid], the “overt cytotoxicity by OD” value (Ava.5 cell line; 250 ug/mL) is given as “no overt cytotoxicity”, the inhibition at 250 µg/mL (HCV replicon) is given as ~60% and the J2 retrovirus expression (J2 retrovirus) is given as “not affected”. The “control of certain lymphomas and viral diseases in humans” value [1] was “effective” and the EC50 (CMV AD 169 strain) was ~230 µg/mL (≈ 1870 µM).
